Laboratory results as given in article PMC5007443, “TNIK inhibition abrogates colorectal cancer stemness” (Nature Communications, 2016).

Columns and labels:
[1] = tested on: HCT116 cells; assay: CSC surface marker flow cytometry in HCT116 cells; format: cell-based, human; settings: HCT116, 1 µM, 96 hours
Procedure: Cells were collected with Accutase, washed with stain buffer (BD Pharmingen), resuspended in 100 μl stain buffer (5 × 10^5 cells per 100 μl), and incubated with fluorophore-conjugated antibodies or their corresponding isotype-matched control antibodies (Supplementary Table 4) at 4 °C for 30 min. The cells were then washed twice and resuspended in 500 μl of stain buffer. 7-Aminoactinomycin D (7AAD; BD Pharmingen) was added to the samples before analysis. Relative fluorescence intensities were measured using a Guava easy Cyte HT flow cytometer following exclusion of dead cells on the basis of 7AAD incorporation. Data analysis was performed using Guava InCyte software (Merck-Millipore). Experiments were performed in triplicate and repeated at least two times.

[2] = molecular target: CHK1 (Homo sapiens, UniProt O14757); assay: Kinase selectivity profiling, Checkpoint kinase 1; format: biochemical; settings: read-out: Percentage inhibition of CHK1
Sequence of CHK1 (O14757 whole entry): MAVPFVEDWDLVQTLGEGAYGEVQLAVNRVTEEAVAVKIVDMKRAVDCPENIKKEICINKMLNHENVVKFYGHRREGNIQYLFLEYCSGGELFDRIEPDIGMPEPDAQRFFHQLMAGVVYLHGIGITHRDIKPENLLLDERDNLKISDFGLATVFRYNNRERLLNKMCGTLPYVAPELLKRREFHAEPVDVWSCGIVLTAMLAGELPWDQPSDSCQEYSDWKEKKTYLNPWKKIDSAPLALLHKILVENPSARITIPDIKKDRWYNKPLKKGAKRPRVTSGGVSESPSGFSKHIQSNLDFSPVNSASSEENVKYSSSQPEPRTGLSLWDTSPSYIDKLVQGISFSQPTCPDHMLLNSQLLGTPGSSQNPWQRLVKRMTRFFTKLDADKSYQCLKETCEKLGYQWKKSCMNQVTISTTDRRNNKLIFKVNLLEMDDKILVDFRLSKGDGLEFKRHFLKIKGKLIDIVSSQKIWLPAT
Procedure: (§1) The selectivity of compounds against a panel of 50 human protein kinases was assessed using a non-radiometric assay.

[3] = tested on: patient-derived colon cancer spheroid #6 xenograft; assay: Xenograft of patient-derived spheroid #6 in NOD/ShiJic-scid mice; format: in vivo, mouse; settings: NCB-0846 HCl oral 50 or 100 mg kg−1 BID, 6-days-on, 1-day-off
Source text: (§2) Patient-derived colorectal cancer spheroids were dissociated, resuspended in medium containing 50% Matrigel (Corning), and inoculated subcutaneously (#6; 1 × 10^4 cells per injection, #19; 1 × 10^5 cells per injection) into the flank of female NOD/ShiJic-scid mice (4-week-old females; CLEA Japan). When the tumour volume reached ∼200 mm^3, the mice were randomized according tumour volume (10 mice per group) and treatment was started.
(§3) Tumour volume was estimated based on the formula: (length × width^2)/2. The tumour volume (twice a week) and body weight (every day) of each mouse were recorded. The patient-derived spheroids and xenografts were established after obtaining informed consent from the donors.

[4] = tested on: HCT116 cells; assay: PARP-1 cleavage, immunoblotting; format: cell-based, human; settings: HCT116, 1 μM, 24 or 48 h
Procedure: (§4) Protein samples were fractionated by SDS–PAGE and blotted onto Immobilon-P membranes (Millipore) as described previously. After incubation with the primary antibodies (listed in Supplementary Table 4) at 4 °C overnight, the blots were detected with the relevant horseradish peroxidase-conjugated anti-mouse or anti-rabbit IgG antibody (Cell Signaling Technology) and Western lighting ECL Pro (PerkinElmer). Signals were visualized with the LAS-4010 system (GE Healthcare). Uncropped versions of the blots in Figs 2e and 3f are shown in Supplementary Fig. 15.

[5] = tested on: TCF/LEF transcriptional activity; assay: TCF/LEF luciferase reporter in Wnt3a-treated HEK293 cells; format: cell-based, human; settings: Wnt3a-treated HEK293, 24 h
Procedure: HEK293 cells were transiently transfected with pGL4.49[luc2P/TCF-LEF-RE/Hygro] reporter vector (Promega) using Fugene HD Transfection Reagent (Promega; Fig. 2f). After overnight incubation, the cells were then treated with 10 mM LiCl (Sigma-Aldrich). Luciferase activity was measured using the ONE-Glo Luciferase Assay System (Promega). The assay was performed in triplicate and repeated at least two times.
In some experiments cells were treated with mouse Wnt3a (PeproTech) (Fig. 1c) or human Wnt3a (R&D Systems; Fig. 2f) before the measurements, as indicated in the figure legends.

[6] = tested on: Wnt target genes (AXIN2, MYC, CCND1) and TNIK; assay: RT-PCR of TNIK and Wnt target genes in HCT116 cells; format: cell-based, human; settings: HCT116, 24 h
Procedure: Total RNA was prepared with an RNeasy Mini Kit (Qiagen). cDNA was synthesized using SuperScript II reverse transcriptase (Thermo Fisher Scientific) or a High-Capacity cDNA reverse transcription kit (Thermo Fisher Scientific) and subjected to TaqMan gene expression assay using pre-designed primer and probe sets (listed in Supplementary Table 3). Amplification data measured as an increase in reporter fluorescence were collected using the StepOne Real-Time PCR System (Thermo Fisher Scientific). The relative mRNA expression level normalized to the internal control (human/mouse β-actin (ACTB/Actb1) gene) was calculated by the comparative threshold cycle (CT) method. Experiments were performed in triplicate and repeated at least two times.

[7] = tested on: patient-derived colon cancer spheroid #19 xenograft; assay: Xenograft of patient-derived spheroid #19 in NOD/ShiJic-scid mice; format: in vivo, mouse; settings: NCB-0846 HCl oral 50 or 100 mg kg−1 BID, 6-days-on, 1-day-off
Source text: as §2, §3

[8] = tested on: HCT116 cells; assay: Limiting dilution analysis of sphere formation, HCT116; format: cell-based, human
Procedure: One million HCT116 and DLD-1 cells were seeded onto 60-mm plates and treated with vehicle (DMSO) or compounds (0.1, 0.3 or 1.0 μM) for either 3 or 4 days. After washing off the compounds, the cells were dissociated to single cells in serum-free DMEM/F12 medium (Thermo Fisher Scientific) containing B27 (Thermo Fisher Scientific), 20 ng ml^−1 epidermal growth factor (EGF; Thermo Fisher Scientific), 10 ng ml^−1 basic fibroblast factor (bFGF; Thermo Fisher Scientific), 5 μg ml^−1 insulin (Thermo Fisher Scientific), 0.4% bovine serum albumin (Sigma-Aldrich) and 2 mM L-glutamine (Thermo Fisher Scientific). One hundred, 10 or 1 viable (determined by trypan-blue dye exclusion) cells were seeded into each well of a 96-well U-bottom PrimeSurface plate (Sumitomo Bakelite). Ten days later, the number of wells showing sphere formation was counted. The frequency of sphere-forming cells was calculated using ELDA software (http://bioinf.wehi.edu.au/software/elda/index.html) provided by the Walter and Eliza Hall Institute (Fig. 5c; Supplementary Table 2). Experiments were performed in triplicate and repeated at least two times.

[9] = tested on: CD44 and Ki67 expression in xenografts; assay: Immunohistochemistry of spheroid #6 xenografts; format: in vivo, mouse; settings: spheroid #6 xenografts resected after treatment
Procedure: Immunoperoxidase staining (Fig. 6g) was performed using the Ventana DABMap detection kit and an automated slide stainer (Discovery XT, Ventana Medical Systems)[56].

[10] = molecular target: PYK2 (Homo sapiens, UniProt Q14289); assay: Kinase selectivity profiling, Proline-rich tyrosine kinase 2; format: biochemical; settings: read-out: Percentage inhibition of PYK2
Sequence of PYK2 (Q14289 whole entry): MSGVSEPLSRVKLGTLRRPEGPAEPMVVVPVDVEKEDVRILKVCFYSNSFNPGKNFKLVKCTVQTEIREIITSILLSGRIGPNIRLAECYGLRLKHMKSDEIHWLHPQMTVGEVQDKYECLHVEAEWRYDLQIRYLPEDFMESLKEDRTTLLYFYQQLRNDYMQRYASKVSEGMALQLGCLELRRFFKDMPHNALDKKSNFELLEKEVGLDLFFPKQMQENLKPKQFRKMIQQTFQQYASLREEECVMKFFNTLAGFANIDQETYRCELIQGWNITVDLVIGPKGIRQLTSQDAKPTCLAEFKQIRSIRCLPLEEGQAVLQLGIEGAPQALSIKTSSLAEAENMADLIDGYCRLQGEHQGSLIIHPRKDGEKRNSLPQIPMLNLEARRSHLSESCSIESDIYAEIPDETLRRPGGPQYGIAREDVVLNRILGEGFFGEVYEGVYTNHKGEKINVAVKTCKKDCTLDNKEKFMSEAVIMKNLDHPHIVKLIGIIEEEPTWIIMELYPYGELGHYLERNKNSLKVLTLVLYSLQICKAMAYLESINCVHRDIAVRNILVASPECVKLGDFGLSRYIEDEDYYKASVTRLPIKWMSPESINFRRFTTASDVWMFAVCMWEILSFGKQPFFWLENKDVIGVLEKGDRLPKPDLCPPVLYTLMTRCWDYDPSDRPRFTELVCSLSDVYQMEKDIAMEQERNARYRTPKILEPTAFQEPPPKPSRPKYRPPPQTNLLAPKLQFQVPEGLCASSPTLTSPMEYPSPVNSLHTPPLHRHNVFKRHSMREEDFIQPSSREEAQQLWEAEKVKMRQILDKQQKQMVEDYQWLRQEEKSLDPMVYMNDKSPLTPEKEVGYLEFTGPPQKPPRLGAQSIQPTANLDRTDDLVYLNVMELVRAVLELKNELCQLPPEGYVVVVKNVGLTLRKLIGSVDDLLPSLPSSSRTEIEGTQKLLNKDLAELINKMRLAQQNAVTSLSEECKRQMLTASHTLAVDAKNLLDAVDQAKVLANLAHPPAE
Procedure: as §1

[11] = tested on: TNIK, AXIN2, c-MYC, LRP6, LRP5 proteins; assay: Immunoblotting of TNIK, AXIN2, c-MYC, LRP6, LRP5 in HCT116 and DLD-1 cells; format: cell-based, human; settings: HCT116 and DLD-1, 48 h
Procedure: as §4

[12] = HCT116, 3-day treatment, 0.1μM, 1 cell per well
[13] = HCT116, 3-day treatment, 0.1μM, 10 cells per well
[14] = HCT116, 3-day treatment, 0.1μM, 100 cells per well
[15] = HCT116, 3-day treatment, 0.3μM, 1 cell per well
[16] = HCT116, 3-day treatment, 0.3μM, 10 cells per well
[17] = HCT116, 3-day treatment, 0.3μM, 100 cells per well
[18] = HCT116, 3-day treatment, 1.0μM, 1 cell per well
[19] = HCT116, 3-day treatment, 1.0μM, 10 cells per well
[20] = HCT116, 3-day treatment, 1.0μM, 100 cells per well
[21] = HCT116, 4-day treatment, 0.1μM, 1 cell per well
[22] = HCT116, 4-day treatment, 0.1μM, 10 cells per well
[23] = HCT116, 4-day treatment, 0.1μM, 100 cells per well
[24] = HCT116, 4-day treatment, 0.3μM, 1 cell per well
[25] = HCT116, 4-day treatment, 0.3μM, 10 cells per well
[26] = HCT116, 4-day treatment, 0.3μM, 100 cells per well
[27] = HCT116, 4-day treatment, 1.0μM, 1 cell per well
[28] = HCT116, 4-day treatment, 1.0μM, 10 cells per well
[29] = HCT116, 4-day treatment, 1.0μM, 100 cells per well

SMILES	inhibition at 0.1 µM [2]	Sphere-containing wells/total wells [8, 12]	Sphere-containing wells/total wells [8, 13]	Sphere-containing wells/total wells [8, 14]	Sphere-containing wells/total wells [8, 15]	Sphere-containing wells/total wells [8, 16]	Sphere-containing wells/total wells [8, 17]	Sphere-containing wells/total wells [8, 18]	Sphere-containing wells/total wells [8, 19]	Sphere-containing wells/total wells [8, 20]	Sphere-containing wells/total wells [8, 21]	Sphere-containing wells/total wells [8, 22]	Sphere-containing wells/total wells [8, 23]	Sphere-containing wells/total wells [8, 24]	Sphere-containing wells/total wells [8, 25]	Sphere-containing wells/total wells [8, 26]	Sphere-containing wells/total wells [8, 27]	Sphere-containing wells/total wells [8, 28]	Sphere-containing wells/total wells [8, 29]	inhibition at 0.1 µM [10]	other results
O[C@H]1CC[C@@H](Oc2cccc3cnc(Nc4ccc5nc[nH]c5c4)nc23)CC1 [NCB-0846, cis-4-(2-(3H-benzo[d]imidazol-5-ylamino)quinazolin-8-yloxy)cyclohexanol]	10.1%	60/96	96/96	96/96	47/96	96/96	96/96	3/96	21/96	95/96	69/96	96/96	96/96	41/96	96/96	96/96	0/96	19/96	93/96	73%	proportion of cells showing high expression of CSC surface markers (CD44, CD133, CD166, CD29 and EpCAM) [1]: reduced; growth of tumours [3]: suppressed; Cleavage of PARP-1 [4]: induction of apoptosis; TCF/LEF transcriptional activity [5]: inhibited; expression of AXIN2 gene [6]: reduced; expression of CCND1 gene [6]: not affected; expression of MYC gene [6]: reduced; expression of TNIK gene [6]: reduced; growth of tumours [7]: suppressed; sphere formation activity ([8]; HCT116, short-term (3–4 days) treatment): significantly abrogated; CD44 expression in xenografts [9]: suppression; Ki67 expression in xenografts [9]: modest decrease; LRP6 and LRP5 protein expression [11]: downregulated; expression of TNIK, AXIN2 and cMYC at the protein level [11]: reduced
O[C@H]1CC[C@H](Oc2cccc3cnc(Nc4ccc5nc[nH]c5c4)nc23)CC1 [NCB-0970]	9%	62/96	96/96	96/96	65/96	96/96	96/96	60/96	96/96	96/96	59/96	96/96	96/96	60/96	96/96	96/96	56/96	96/96	96/96	23.6%	
